Measured values as given in US20100009970A1, “COMPOSITIONS AND METHODS FOR TREATMENT OF VIRAL DISEASES” (Combinatorx (Singapore) Pte. Ltd., priority 2008, published 2010).
Where two headings read alike, the source gives them in different places.

How the values were obtained:
in vitro = settings: human
[1] = test system: Huh7 cells expressing a subgenomic RNA replicon of Con1 (genotype 1b) sequence origin; test: microbe, parasite or virus in culture; settings: Hepatitis C virus
[2] = Huh-7, read-out: IC50 (uM) [SG]
[3] = Huh-7, read-out: Max Effect@CC30 (inhibition)

CSc1ccc(Oc2ccc(S(N)(=O)=O)cc2CN2CCN(c3ccncc3)CC2)cc1C [Compound 91, 4-(3-methyl-4-(methylthio)phenoxy)-3-((4-(pyridin-4-yl)piperazin-1-yl)methyl)benzenesulfonamide]
CC50 (in vitro; CC50 (uM) [SG]): 9.86 µM
IC50 [1, 2]: 4.91 µM

CSc1ccc(Oc2ccc(CNS(C)(=O)=O)cc2CN(C)C)cc1C [Compound 17, N-(3-((dimethylamino)methyl)-4-(3-methyl-4-(methylthio)phenoxy)benzyl)methanesulfonamide]
CC50 (in vitro; CC50 (uM) [SG]): > 50 µM
IC50 [1, 2]: 22.7 µM

CNC(=O)c1cc(S(N)(=O)=O)ccc1Oc1ccc(SC)c(C)c1 [Compound 45, N-methyl-2-(3-methyl-4-(methylthio)phenoxy)-5-sulfamoylbenzamide]
CC50 (in vitro; CC50 (uM)): > 50 µM
Emax [1, 3]: 10.3%

CN[C@H]1CC[C@@H](c2ccc(Cl)c(Cl)c2)c2ccc(NS(=O)(=O)c3ccccc3)cc21 [N-((5S,8S)-5-(3,4-dichlorophenyl)-8-(methylamino)-5,6,7,8-tetrahydronaphthalen-2-yl)benzenesulfonamide]
CC50 (in vitro; CC50 (uM)): 3.91 µM
CC50 (in vitro; CC50 (uM) [SG]): 3.91 µM
IC50 ([1]; Huh-7): 3.48 µM
IC90 ([1]; Huh-7): 3.83 µM
IC50 [1, 2]: 3.48 µM

CN[C@H]1CC[C@@H](c2ccc(Cl)c(Cl)c2)c2ccc(N)cc21 [Sertraline Aniline, (1S,4S)-4-(3,4-dichlorophenyl)-N1-methyl-1,2,3,4-tetrahydronaphthalene-1,7-diamine]
CC50 (in vitro; CC50 (uM)): 8.72 µM
CC50 (in vitro; CC50 (uM) [SG]): 8.72 µM
Emax ([1]; GETYPE1B, Huh-7, 72 h, read-out: Max Effect @CC30 (inhibition)): 50%
IC50 ([1]; Huh-7, 72 h): 6 µM
IC50 [1, 2]: 6 µM
Emax [1, 3]: 50%

CSc1ccc(Oc2ccc(S(N)(=O)=O)cc2CN2CC[C@H](N(C)C)C2)cc1C [Compound 88, (S)-3-((3-(dimethylamino)pyrrolidin-1-yl)methyl)-4-(3-methyl-4-(methylthio)phenoxy)benzenesulfonamide]
CC50 (in vitro; CC50 (uM) [SG]): 39.4 µM
IC90 ([1]; Huh-7): 13.2 µM
IC50 [1, 2]: 4.15 µM

CSc1ccc(Oc2ccc(S(N)(=O)=O)cc2CN2CCN(c3ccc(Cl)cc3)CC2)cc1C [Compound 92, 3-((4-(4-chlorophenyl)piperazin-1-yl)methyl)-4-(3-methyl-4-(methylthio)phenoxy)benzenesulfonamide]
CC50 (in vitro; CC50 (uM) [SG]): 44.4 µM
IC50 [1, 2]: 30 µM

CN(C)[C@H]1CC[C@@H](c2ccc(Cl)c(Cl)c2)c2ccc(NC(=O)c3ccccc3)cc21 [N-((5S,8S)-5-(3,4-dichlorophenyl)-8-(dimethylamino)-5,6,7,8-tetrahydronaphthalen-2-yl)benzamide]
CC50 (in vitro; CC50 (uM) [SG]): 12.5 µM
IC50 [1, 2]: 9.41 µM

Cc1cccc(Oc2ccc(S(N)(=O)=O)cc2CC(C)C)c1 [Compound 65, 3-isobutyl-4-(m-tolyloxy)benzenesulfonamide]
CC50 (in vitro; CC50 (uM) [SG]): > 50 µM
IC90 ([1]; Huh-7): 50 µM
IC50 [1, 2]: 30.7 µM

CSc1ccc(Oc2ccc(S(N)(=O)=O)cc2CN2CCC[C@H]2CN2CCCC2)cc1C [Compound 105, (S)-4-(3-methyl-4-(methylthio)phenoxy)-3-(((2-pyrrolidin-1-ylmethyl)pyrrolidin-1-yl)methyl)benzensulfonamide]
CC50 (in vitro; CC50 (uM) [SG]): 22.2 µM
IC90 ([1]; Huh-7): 6.86 µM
IC50 [1, 2]: 6.38 µM

CNC(=O)c1ccc2c(c1)[C@@H](NC)CC[C@H]2c1ccc(Cl)c(Cl)c1 [Sertraline A-Ring Methyl Carboxamide, (5S,8S)-5-(3,4-dichlorophenyl)-N-methyl-8-(methylamino)-5,6,7,8-tetrahydronaphthalene-2-carboxamide]
CC50 (in vitro; CC50 (uM) [SG]): 11.1 µM
IC50 [1, 2]: 2.82 µM
Emax [1, 3]: 81.2%

CN[C@H]1CC[C@@H](c2ccc(Cl)c(Cl)c2)c2ccc(NS(=O)(=O)c3cn(C)cn3)cc21 [N-((5S,8S)-5-(3,4-dichlorophenyl)-8-(methylamino)-5,6,7,8-tetrahydronaphthalen-2-yl)-1-methyl-1H-imidazole-4-sulfonamide]
CC50 (in vitro; CC50 (uM) [SG]): 13.6 µM
IC50 [1, 2]: 7.76 µM
Emax [1, 3]: 20.2%

CNCc1cc(Br)ccc1Oc1cccc(OC)c1 [Compound 37, (5-bromo-2-(3-methoxyphenoxy)phenyl)-N-methylmethanamine]
CC50 (in vitro; CC50 (uM) [SG]): 46.9 µM
IC50 [1, 2]: 27.7 µM
Emax [1, 3]: 12.4%

CSc1ccc(Oc2ccc(S(N)(=O)=O)cc2CNCCN(C)C)cc1C [Compound 96, 3-((2-(dimethylamino)ethylamino)methyl)-4-(3-methyl-4-(methylthio)phenoxy)benzenesulfonamide]
CC50 (in vitro; CC50 (uM) [SG]): 19.4 µM
IC90 ([1]; Huh-7): 5.89 µM
IC50 [1, 2]: 2.77 µM

OC1CC[C@@H](c2ccc(Cl)c(Cl)c2)c2ccccc21 (stereo partly drawn) [Alcohol Sertraline-P1, (S)-4-(3,4-dichlorophenyl)-1,2,3,4-tetrahydronaphthalen-1-ol]
CC50 (in vitro; CC50 (uM) [SG]): > 50 µM
IC50 [1, 2]: 24.5 µM
Emax [1, 3]: 89.2%

CC(=O)Nc1ccc2c(c1)C(C(C)C)CCC2c1ccc(Cl)c(Cl)c1 (centres unmarked) [N-(5-(3,4-dichlorophenyl)-8-isopropyl-5,6,7,8-tetrahydronaphthalen-2-yl)acetamide]
CC50 (in vitro; CC50 (uM) [SG]): > 50 µM
IC90 ([1]; Huh-7): 37.7 µM
IC50 [1, 2]: 15.8 µM

CN[C@H]1CC[C@@H](c2ccc(Cl)c(Cl)c2)c2ccc(CS(=O)(=O)c3ccccc3)cc21 [(1S,4S)-4-(3,4-dichlorophenyl)-N-methyl-7-(phenylsulfonylmethyl)-1,2,3,4-tetrahydronaphthalen-1-amine]
CC50 (in vitro; CC50 (uM) [SG]): 6.7 µM
IC50 [1, 2]: 6.24 µM

CSc1ccc(Oc2cc(Br)ccc2CN(C)C)cc1C [Compound 60, 1-(4-bromo-2-(3-methyl-4-(methylthio)phenoxy)phenyl)-N,N-dimethylmethanamine]
CC50 (in vitro; CC50 (uM) [SG]): 28.7 µM
IC50 [1, 2]: 12.6 µM

CSc1ccc(Oc2ccc(S(N)(=O)=O)cc2CN2CCN(C3CCN(C)CC3)CC2)cc1C [Compound 90, 4-(3-methyl-4-(methylthio)phenoxy)-3-((4-(1-methylpiperidin-4-yl)piperazin-1-yl)methyl)benzenesulfonamide]
CC50 (in vitro; CC50 (uM) [SG]): 9.1 µM
IC90 ([1]; Huh-7): 7.48 µM
IC50 [1, 2]: 2.03 µM

Cc1cc(Oc2ccc(S(N)(=O)=O)cc2CN(C)C)ccc1Br [Compound 61, 4-(4-bromo-3-methylphenoxy)-3-((dimethylamino)methyl)benzenesulfonamide]
CC50 (in vitro; CC50 (uM) [SG]): > 50 µM
IC50 [1, 2]: 12.1 µM

CSc1ccc(Oc2ccc(N)cc2CN(C)C)cc1C [Compound 53, 3-((dimethylamino)methyl)-4-(3-methyl-4-(methylthio)phenoxy)aniline]
CC50 (in vitro; CC50 (uM) [SG]): > 50 µM
IC90 ([1]; Huh-7): 45.7 µM
IC50 [1, 2]: 22.6 µM
Emax [1, 3]: 91.5%

CSc1ccc(Oc2ccc(N(C)C)cc2CN(C)C)cc1C [Compound 15, 3-((dimethylamino)methyl)-N,N-dimethyl-4-(3-methyl-4-(methylthio)phenoxy)aniline]
CC50 (in vitro; CC50 (uM) [SG]): 38.7 µM
IC50 [1, 2]: 23 µM

CC(=O)Nc1ccc2c(c1)[C@@H](N(C)CCO)CC[C@H]2c1ccc(Cl)c(Cl)c1 [N-((5S,8S)-5-(3,4-dichlorophenyl)-8-((2-hydroxyethyl)(methyl)amino)-5,6,7,8-tetrahydronaphthalen-2-yl)acetamide]
CC50 (in vitro; CC50 (uM) [SG]): 44.9 µM
IC50 [1, 2]: 13.2 µM

CSc1ccc(Oc2ccc([N+](=O)[O-])cc2CN(C)C)cc1C [Compound 54, N,N-dimethyl-1-(2-(3-methyl-4-(methylthio)phenoxy)-5-nitrophenyl)methanamine]
CC50 (in vitro; CC50 (uM) [SG]): > 50 µM
IC90 ([1]; Huh-7): 7.07 µM
IC50 [1, 2]: 6.18 µM
Emax [1, 3]: 97.9%

CNCc1cc(S(N)(=O)=O)ccc1Oc1ccc(C)c(C)c1 [Compound 84, 4-(3,4-dimethylphenoxy)-3-((methylamino)methyl)benzenesulfonamide]
CC50 (in vitro; CC50 (uM) [SG]): 46.7 µM
IC90 ([1]; Huh-7): 39.6 µM
IC50 [1, 2]: 28.1 µM

CNCc1ccccc1Oc1ccc(SC)cc1 [Compound 33, N-methyl(2-(4-(methylthio)phenoxy)phenyl)methanamine]
CC50 (in vitro; CC50 (uM) [SG]): > 50 µM
IC50 [1, 2]: 30.2 µM
Emax [1, 3]: 72.3%

CSc1ccc(Oc2ccc(S(N)(=O)=O)cc2CN2CCOCC2)cc1C [Compound 82, 4-(3-methyl-4-(methylthio)phenoxy)-3-(morpholinomethyl)benzenesulfonamide]
CC50 (in vitro; CC50 (uM) [SG]): > 50 µM
IC50 [1, 2]: 20.8 µM

CNCc1cc(S(N)(=O)=O)ccc1Oc1ccc([N+](=O)[O-])c(C)c1 [Compound 76, 4-(3-methyl-4-nitrophenoxy)-3-((methylamino)methyl)benzenesulfonamide]
CC50 (in vitro; CC50 (uM) [SG]): > 50 µM
IC50 [1, 2]: 31 µM

CSc1ccc(Oc2cc(C#N)ccc2CN(C)C)cc1C [Compound 64, 4-((dimethylamino)methyl)-3-(3-methyl-4-(methylthio)phenoxy)benzonitrile]
CC50 (in vitro; CC50 (uM) [SG]): > 50 µM
IC50 [1, 2]: 22.5 µM

CNCc1ccccc1Oc1ccc(SC)c(C)c1 [Compound 30, N-methyl-1-(2-(3-methyl-4-(methylthio)phenoxy)phenyl)methanamine]
CC50 (in vitro; CC50 (uM) [SG]): 26.4 µM
IC50 [1, 2]: 13.2 µM
Emax [1, 3]: 26%

CSc1ccc(Oc2ccccc2CN(C)C)cc1C [Compound 8, N,N-dimethyl-1-(2-(3-methyl-4-(methylthio)phenoxy)phenyl)methanamine]
CC50 (in vitro; CC50 (uM) [SG]): 36 µM
IC50 [1, 2]: 12.2 µM
Emax [1, 3]: 52.3%

CSc1ccc(Oc2ccc(S(N)(=O)=O)cc2CN2CCCN(C)CC2)cc1C [Compound 74, 3-((4-methyl-1,4-diazepan-1-yl)methyl)-4-(3-methyl-4-(methylthio)phenoxy)benzenesulfonamide]
CC50 (in vitro; CC50 (uM) [SG]): 35.9 µM
IC90 ([1]; Huh-7): 16.1 µM
IC50 [1, 2]: 7.31 µM

CN[C@H]1CC[C@@H](c2ccc(Cl)c(Cl)c2)c2ccc(C(=O)NC3CC3)cc21 [(5S,8S)—N-cyclopropyl-5-(3,4-dichlorophenyl)-8-(methylamino)-5,6,7,8-tetrahydronaphthalene-2-carboxamide]
CC50 (in vitro; CC50 (uM) [SG]): 8.87 µM
IC50 [1, 2]: 2.75 µM
Emax [1, 3]: 88%

CN(C(=O)c1ccc2c(c1)[C@@H](N(C)C)CC[C@H]2c1ccc(Cl)c(Cl)c1)C1CC1 [(5S,8S)—N-cyclopropyl-5-(3,4-dichlorophenyl)-8-(dimethylamino)-N-methyl-5,6,7,8-tetrahydronaphthalene-2-carboxamide]
CC50 (in vitro; CC50 (uM) [SG]): 26.3 µM
IC50 [1, 2]: 13 µM
